Earlier results, collected in article PMC3433420 (PLoS ONE, 2012).
Like-named read-outs stand apart in the source and are kept apart here.

Molecular target: SH2 and PTB domains
Conditions: cited from earlier work
Excerpt: Supplement pone.0044471.s022.xlsx, sheet "Most recent PM interactions" | column: Kd || Supplement pone.0044471.s022.xlsx, sheet "All original PM interactions" | column: Kd

[1] = protein PLCG2-NC, ref Kaushansky et al. Chem and Biol 2008

In the case of “AEDEpYVNEPLYLd [ErbB4 pY1202, N-terminally rhodamine-labeled 13-mer phosphopeptide]”, the Kd (protein SYK-N, ref Kaushansky et al. Chem and Biol 2008) is given as 6 nM.
In the case of ALESILHRIpYTHQSDVWd [ErbB1 891], the Kd (Protein HSH2D, most recent PM interactions, ref Kaushansky et al. Mol Biosys 2008) is given as 1130 nM and the Kd (Protein TNS4, most recent PM interactions, ref Kaushansky et al. Mol Biosys 2008) is given as 300 nM.
In the case of “DADEpYLIPQQGFd [ErbB1 pY1016, N-terminally rhodamine-labeled 13-mer phosphopeptide]”, the Kd (protein ABL2, ref Jones et al. 2006 / Kaushansky et al. Mol Biosys 2008 / Kaushansky et al. Chem and Biol 2008) is listed as 280 nM, the Kd (protein BLK, ref Jones et al. 2006 / Kaushansky et al. Mol Biosys 2008 / Kaushansky et al. Chem and Biol 2008) is listed as 660 nM and the Kd (protein CRK, ref Jones et al. 2006 / Kaushansky et al. Mol Biosys 2008 / Kaushansky et al. Chem and Biol 2008) is listed as 470 nM. For the same substance, the Kd (protein CRKL, ref Jones et al. 2006 / Kaushansky et al. Mol Biosys 2008 / Kaushansky et al. Chem and Biol 2008) was 1000 nM, the Kd (protein NCK1, ref Jones et al. 2006 / Kaushansky et al. Mol Biosys 2008 / Kaushansky et al. Chem and Biol 2008) was 1000 nM and the Kd (protein NCK2, ref Jones et al. 2006 / Kaushansky et al. Mol Biosys 2008 / Kaushansky et al. Chem and Biol 2008) was 2000 nM. For the same substance, the Kd (protein PIK3R1-C, ref Jones et al. 2006 / Kaushansky et al. Mol Biosys 2008 / Kaushansky et al. Chem and Biol 2008) was 870 nM, the Kd (protein PIK3R1-N, ref Jones et al. 2006 / Kaushansky et al. Mol Biosys 2008 / Kaushansky et al. Chem and Biol 2008) was 650 nM and the Kd (protein PIK3R1-NC, ref Jones et al. 2006 / Kaushansky et al. Mol Biosys 2008 / Kaushansky et al. Chem and Biol 2008) was 300 nM. The Kd (protein PIK3R2-N, ref Jones et al. 2006 / Kaushansky et al. Mol Biosys 2008 / Kaushansky et al. Chem and Biol 2008) was 430 nM, the Kd (protein PIK3R2-NC, ref Jones et al. 2006 / Kaushansky et al. Mol Biosys 2008 / Kaushansky et al. Chem and Biol 2008) was 350 nM and the Kd (protein PIK3R3-C, ref Jones et al. 2006 / Kaushansky et al. Mol Biosys 2008 / Kaushansky et al. Chem and Biol 2008) was 190 nM. For the same substance, the Kd (protein PIK3R3-N, ref Jones et al. 2006 / Kaushansky et al. Mol Biosys 2008 / Kaushansky et al. Chem and Biol 2008) was 470 nM, the Kd (protein PIK3R3-NC, ref Jones et al. 2006 / Kaushansky et al. Mol Biosys 2008 / Kaushansky et al. Chem and Biol 2008) was 200 nM and the Kd (protein PLCG1-C, ref Jones et al. 2006 / Kaushansky et al. Mol Biosys 2008 / Kaushansky et al. Chem and Biol 2008) was 2000 nM. For the same substance, the Kd (protein PLCG1-NC, ref Jones et al. 2006 / Kaushansky et al. Mol Biosys 2008 / Kaushansky et al. Chem and Biol 2008) was 790 nM, the Kd (protein PLCG2-NC, ref Jones et al. 2006 / Kaushansky et al. Mol Biosys 2008 / Kaushansky et al. Chem and Biol 2008) was 2000 nM and the Kd (protein PTPN11-N, ref Jones et al. 2006 / Kaushansky et al. Mol Biosys 2008 / Kaushansky et al. Chem and Biol 2008) was 380 nM. The Kd (protein RASA1-N, ref Jones et al. 2006 / Kaushansky et al. Mol Biosys 2008 / Kaushansky et al. Chem and Biol 2008) was 770 nM, the Kd (protein RASA1-NC, ref Jones et al. 2006 / Kaushansky et al. Mol Biosys 2008 / Kaushansky et al. Chem and Biol 2008) was 1420 nM and the Kd (protein SH2D3A, ref Jones et al. 2006 / Kaushansky et al. Mol Biosys 2008 / Kaushansky et al. Chem and Biol 2008) was 2000 nM. For the same substance, the Kd (protein SH2D3C, ref Jones et al. 2006 / Kaushansky et al. Mol Biosys 2008 / Kaushansky et al. Chem and Biol 2008) was 2000 nM, the Kd (protein SHB, ref Jones et al. 2006 / Kaushansky et al. Mol Biosys 2008 / Kaushansky et al. Chem and Biol 2008) was 1990 nM and the Kd (protein SHC1-PTB, ref Jones et al. 2006 / Kaushansky et al. Mol Biosys 2008 / Kaushansky et al. Chem and Biol 2008) was 630 nM. The Kd (protein SHC2-PTB, ref Jones et al. 2006 / Kaushansky et al. Mol Biosys 2008 / Kaushansky et al. Chem and Biol 2008) was 660 nM, the Kd (protein SHC3, ref Jones et al. 2006 / Kaushansky et al. Mol Biosys 2008 / Kaushansky et al. Chem and Biol 2008) was 220 nM and the Kd (protein SLA, ref Jones et al. 2006 / Kaushansky et al. Mol Biosys 2008 / Kaushansky et al. Chem and Biol 2008) was 2000 nM. For the same substance, the Kd (protein SYK-C, ref Jones et al. 2006 / Kaushansky et al. Mol Biosys 2008 / Kaushansky et al. Chem and Biol 2008) was 930 nM, the Kd (protein SYK-NC, ref Jones et al. 2006 / Kaushansky et al. Mol Biosys 2008 / Kaushansky et al. Chem and Biol 2008) was 530 nM and the Kd (protein TENC1, ref Jones et al. 2006 / Kaushansky et al. Mol Biosys 2008 / Kaushansky et al. Chem and Biol 2008) was 2000 nM. The Kd (protein TNS4, ref Jones et al. 2006 / Kaushansky et al. Mol Biosys 2008 / Kaushansky et al. Chem and Biol 2008) was 920 nM, the Kd (protein VAV1, ref Jones et al. 2006 / Kaushansky et al. Mol Biosys 2008 / Kaushansky et al. Chem and Biol 2008) was 1050 nM and the Kd (protein VAV2, ref Jones et al. 2006 / Kaushansky et al. Mol Biosys 2008 / Kaushansky et al. Chem and Biol 2008) was 2000 nM. The Kd (protein VAV3, ref Jones et al. 2006 / Kaushansky et al. Mol Biosys 2008 / Kaushansky et al. Chem and Biol 2008) was 2000 nM.
For “DAEEpYLVPQQGFd [ErbB2 pY1023, N-terminally rhodamine-labeled 13-mer phosphopeptide]”, the Kd (protein ABL2, ref Jones et al. 2006 / Kaushansky et al. Chem and Biol 2008) is given as 2000 nM, the Kd (protein BLK, ref Jones et al. 2006 / Kaushansky et al. Chem and Biol 2008) is given as 2000 nM and the Kd (protein CRK, ref Jones et al. 2006 / Kaushansky et al. Chem and Biol 2008) is given as 2000 nM. For the same substance, the Kd (protein CRKL, ref Jones et al. 2006 / Kaushansky et al. Chem and Biol 2008) was 2000 nM, the Kd (protein DAPP1, ref Jones et al. 2006 / Kaushansky et al. Chem and Biol 2008) was 2000 nM and the Kd (protein FGR, ref Jones et al. 2006 / Kaushansky et al. Chem and Biol 2008) was 2000 nM. The Kd (protein ITK, ref Jones et al. 2006 / Kaushansky et al. Chem and Biol 2008) was 2000 nM, the Kd (protein LYN, ref Jones et al. 2006 / Kaushansky et al. Chem and Biol 2008) was 2000 nM and the Kd (protein NCK2, ref Jones et al. 2006 / Kaushansky et al. Chem and Biol 2008) was 2000 nM. For the same substance, the Kd (protein PIK3R1-C, ref Jones et al. 2006 / Kaushansky et al. Chem and Biol 2008) was 2000 nM, the Kd (protein PIK3R1-NC, ref Jones et al. 2006 / Kaushansky et al. Chem and Biol 2008) was 1640 nM and the Kd (protein PIK3R2-N, ref Jones et al. 2006 / Kaushansky et al. Chem and Biol 2008) was 1950 nM. For the same substance, the Kd (protein PIK3R2-NC, ref Jones et al. 2006 / Kaushansky et al. Chem and Biol 2008) was 2000 nM, the Kd (protein PIK3R3-N, ref Jones et al. 2006 / Kaushansky et al. Chem and Biol 2008) was 1930 nM and the Kd (protein PIK3R3-NC, ref Jones et al. 2006 / Kaushansky et al. Chem and Biol 2008) was 530 nM. The Kd (protein PLCG1-C, ref Jones et al. 2006 / Kaushansky et al. Chem and Biol 2008) was 1460 nM, the Kd (protein PLCG1-NC, ref Jones et al. 2006 / Kaushansky et al. Chem and Biol 2008) was 2000 nM and the Kd (protein PTPN6-C, ref Jones et al. 2006 / Kaushansky et al. Chem and Biol 2008) was 2000 nM. The Kd (protein RASA1-N, ref Jones et al. 2006 / Kaushansky et al. Chem and Biol 2008) was 2000 nM, the Kd (protein RASA1-NC, ref Jones et al. 2006 / Kaushansky et al. Chem and Biol 2008) was 2000 nM and the Kd (protein SH2B2, ref Jones et al. 2006 / Kaushansky et al. Chem and Biol 2008) was 2000 nM. The Kd (protein SH2D3A, ref Jones et al. 2006 / Kaushansky et al. Chem and Biol 2008) was 2000 nM, the Kd (protein SHC1-PTB, ref Jones et al. 2006 / Kaushansky et al. Chem and Biol 2008) was 2000 nM and the Kd (protein SHC2-PTB, ref Jones et al. 2006 / Kaushansky et al. Chem and Biol 2008) was 2000 nM. The Kd (protein SHC3, ref Jones et al. 2006 / Kaushansky et al. Chem and Biol 2008) was 2000 nM, the Kd (protein SLA2, ref Jones et al. 2006 / Kaushansky et al. Chem and Biol 2008) was 2000 nM and the Kd (protein SLA, ref Jones et al. 2006 / Kaushansky et al. Chem and Biol 2008) was 2000 nM. The Kd (protein SOCS1, ref Jones et al. 2006 / Kaushansky et al. Chem and Biol 2008) was 2000 nM, the Kd (protein SOCS2, ref Jones et al. 2006 / Kaushansky et al. Chem and Biol 2008) was 2000 nM and the Kd (protein SRC, ref Jones et al. 2006 / Kaushansky et al. Chem and Biol 2008) was 760 nM. For the same substance, the Kd (protein SUPT6H, ref Jones et al. 2006 / Kaushansky et al. Chem and Biol 2008) was 910 nM, the Kd (protein SYK-NC, ref Jones et al. 2006 / Kaushansky et al. Chem and Biol 2008) was 370 nM and the Kd (protein TEC, ref Jones et al. 2006 / Kaushansky et al. Chem and Biol 2008) was 2000 nM. The Kd (protein TENC1, ref Jones et al. 2006 / Kaushansky et al. Chem and Biol 2008) was 2000 nM, the Kd (protein VAV1, ref Jones et al. 2006 / Kaushansky et al. Chem and Biol 2008) was 2000 nM and the Kd (protein VAV2, ref Jones et al. 2006 / Kaushansky et al. Chem and Biol 2008) was 2000 nM. For the same substance, the Kd (protein VAV3, ref Jones et al. 2006 / Kaushansky et al. Chem and Biol 2008) was 2000 nM and the Kd (protein YES1, ref Jones et al. 2006 / Kaushansky et al. Chem and Biol 2008) was 1170 nM.
In the case of “DEKEpYNADGGKMd [ErbB4 pY875, N-terminally rhodamine-labeled 13-mer phosphopeptide]”, the Kd [1] is listed as 1140 nM.
In the case of “DETEpYHADGGKVd [ErbB2 pY877, N-terminally rhodamine-labeled 13-mer phosphopeptide]”, the Kd (protein BLK, ref Kaushansky et al. Chem and Biol 2008) is listed as 720 nM, the Kd (protein PLCG2-N, ref Kaushansky et al. Chem and Biol 2008) is listed as 650 nM and the Kd [1] is listed as 1100 nM. The Kd (protein RASA1-NC, ref Kaushansky et al. Chem and Biol 2008) was 1400 nM and the Kd (protein YES1, ref Kaushansky et al. Chem and Biol 2008) was 1890 nM.
